The results in this text go back to patent US20250197387A1, “BCL-XL DEGRADERS AND USES THEREOF” (Kymera Therapeutics, Inc., priority 2021, published 2025).

Type in all cases: cell-based
In one assay the test system is MOLT-4 cells. Briefly: CTG (CellTiter-Glo) cell viability assay, MOLT-4. The conditions noted are these: Homo sapiens, MOLT-4, 72 h, 3 day incubation, read-out: CTG Cell Viability Assay - MOLT-4 3 day: Average external-IC50. In a few lines:
(§1)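 MOLT-4 and Caki-2 cells were seeded at 10,000 per well and treated with a 9-point, 1:3 dilution series from 10 μM top concentration (0.2% DMSO). After 3 days at 37 °C, 5% CO2, viability was read by CellTiter-Glo luminescence and IC50 fitted by three-parameter logistic.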
A general note: ATP-based viability assays read luminescence as a measure of living cells.

The next assay relates to Caki-2 cells. Description: CTG (CellTiter-Glo) cell viability assay, Caki-2. The conditions noted are these: Homo sapiens, 72 h, 3 day incubation, read-out: CTG Chempartner - Caki-2 3 day: Average external-IC50. In short, it runs like this:
as §1

The target in a further assay is T1, BCL-XL (Homo sapiens, UniProt Q07817).
T1 construct: endogenous in cells; host or cells: MOLT-4
Description: Bcl-xL ELISA degradation in MOLT-4 cells, 6 h. The conditions noted are these: for DC50: read-out: Bcl-xL ELISA in MOLT-4 degradation 6 h: Mean external-Abs DC50. How it is done:
The letter codes for BCL-XL DC50 include: A (<0.01 μM); B (0.01-0.1 μM); C (>[…]); D (>0.5-1.0 μM); and E (>1.0 μM). The letter codes for Dmax % include A (>75%); B (50 to 75%); C (<50%).
(In an ELISA, binding on a coated surface is turned into a signal by an enzyme label.)

T1 sequence (Q07817 whole entry): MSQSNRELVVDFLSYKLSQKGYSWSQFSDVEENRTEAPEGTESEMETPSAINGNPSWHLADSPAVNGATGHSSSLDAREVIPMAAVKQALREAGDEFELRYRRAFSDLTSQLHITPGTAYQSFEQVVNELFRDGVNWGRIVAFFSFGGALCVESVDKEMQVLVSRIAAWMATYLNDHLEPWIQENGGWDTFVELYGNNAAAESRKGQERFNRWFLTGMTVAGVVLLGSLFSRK

With `C#Cc1ccc(C2(NC(=O)[C@@H]3C[C@@H](O)CN3C(=O)[C@@H](NC(=O)CCCCCS(=O)(=O)NC(=O)c3nc(N4CCc5cccc(C(=O)Nc6nc7cccnc7s6)c5C4)ccc3-c3cnn(CC4CCCCC4)c3C)C(C)(C)C)CC2)cc1` [I-482], the IC50 in the assay with MOLT-4 cells is below 100 nM. Further, the IC50 in the assay with Caki-2 cells was above 10000 nM. Further, on BCL-XL, the Dmax is above 75% and the DC50 was below 10 nM.
For `Cc1ncsc1-c1ccc([C@H](C)NC(=O)[C@@H]2C[C@@H](O)CN2C(=O)[C@@H](NC(=O)C2CCN(c3ccc(S(=O)(=O)NC(=O)c4nc(N5CCc6cccc(C(=O)Nc7nc8ccccc8s7)c6C5)ccc4-c4cnn(CC5(OCCO)CCCCC5)c4C)cc3)CC2)C(C)(C)C)cc1` [I-409] the same measures were below 100 nM, above 10000 nM, above 75% and 10 to 100 nM.
For `Cc1ncsc1-c1ccc([C@H](C)NC(=O)[C@@H]2C[C@@H](O)CN2C(=O)[C@@H](NC(=O)[C@H]2CC[C@H](c3nc(C4CCCN(C(=O)c5nc(N6CCc7cccc(C(=O)Nc8nc9ccccc9s8)c7C6)ccc5-c5cnn(CC6CCCCC6)c5C)C4)no3)CC2)C(C)(C)C)cc1` (stereo partly shown) [I-301] the same measures were 100 to 1000 nM, 1000 to 10000 nM, 50 to 75% and above 1000 nM.
For `C#Cc1ccc([C@H](C)NC(=O)[C@@H]2C[C@@H](O)CN2C(=O)[C@@H](NC(=O)CCCCCS(=O)(=O)NC(=O)c2nc(N(C)c3cc(C)c(Nc4nc5ccccc5s4)nn3)ccc2-c2cnn(CC34CC5CC(CC(C5)C3)C4)c2C)C(C)(C)C)c(O)c1` [I-475] the same measures were below 100 nM, above 10000 nM, above 75% and below 10 nM.
Regarding `COc1nn(C)c2ccc([C@H](C)NC(=O)[C@@H]3C[C@@H](O)CN3C(=O)[C@@H](NC(=O)CCCCCS(=O)(=O)NC(=O)c3nc(N4CCc5cccc(C(=O)Nc6nc7cccnc7s6)c5C4)ccc3-c3cnn(CC4CCCCC4)c3C)C(C)(C)C)cc12` [I-489], in the assay with MOLT-4 cells, the IC50 was below 100 nM. Besides, the IC50 in the assay with Caki-2 cells was above 10000 nM. Besides, at BCL-XL, the Dmax was above 75% and the DC50 was in the range of 10 to 100 nM.
For the compound `C#Cc1ccc(CNC(=O)[C@@H]2C[C@@H](O)CN2C(=O)[C@@H](NC(=O)CCCCCS(=O)(=O)NC(=O)c2nc(N(C)c3cc(C)c(Nc4nc5cccnc5s4)nn3)ccc2-c2cnn(CC34CC5CC(CC(C5)C3)C4)c2C)C(C)(C)C)cc1` [I-446], the IC50 in the assay with MOLT-4 cells is 100 to 1000 nM. Further, the IC50 with Caki-2 cells was above 10000 nM. In addition, on BCL-XL, the Dmax is above 75% and the DC50 is 10 to 100 nM.
For `Cc1ncsc1-c1ccc([C@H](C)NC(=O)[C@@H]2C[C@@H](O)CN2C(=O)[C@@H](NC(=O)C2CCC(O)(c3ccc(S(=O)(=O)NC(=O)c4nc(N5CCc6cccc(C(=O)Nc7nc8ccccc8s7)c6C5)ccc4-c4cnn(CC5CCCCC5)c4C)cc3)CC2)C(C)(C)C)cc1` (stereo partly shown) [I-314], in that order: 100 to 1000 nM, 1000 to 10000 nM, below 50% and above 1000 nM.
For the compound `C#Cc1ccc([C@H](C)NC(=O)[C@@H]2C[C@@H](O)CN2C(=O)[C@@H](NC(=O)CCCCS(=O)(=O)NC(=O)c2nc(N(C)c3cc(C)c(Nc4nc5cccnc5s4)nn3)ccc2-c2cnn(CC34CC5CC(CC(C5)C3)C4)c2C)C(C)(C)C)cc1` [I-454], the figures for the IC50 in the assay with MOLT-4 cells and in the assay on Caki-2 cells were 1000 to 3000 nM and above 10000 nM, respectively. The Dmax on BCL-XL was above 75%. For the same compound, the half-maximal degradation concentration (DC50) on BCL-XL was in the range of 10 to 100 nM.
For `Cc1ncsc1-c1ccc([C@H](C)NC(=O)[C@@H]2C[C@@H](O)CN2C(=O)[C@@H](c2cc(OC3CC4(C3)CN(C(=O)c3nc(N5CCc6cccc(C(=O)Nc7nc8ccccc8s7)c6C5)ccc3-c3cnn(CC5CCCCC5)c3C)C4)no2)C(C)C)cc1` [I-294] the same measures were 100 to 1000 nM, 1000 to 10000 nM, 50 to 75% and 10 to 100 nM.
For `Cc1cc(N(C)c2ccc(-c3cnn(CC45CC6CC(CC(C6)C4)C5)c3C)c(C(=O)NS(=O)(=O)CCCCCC(=O)N[C@H](C(=O)N3C[C@H](O)C[C@H]3C(=O)NCc3ccc4c(c3)c(C)nn4C)C(C)(C)C)n2)nnc1Nc1nc2ccccc2s1` [I-484], in that order: below 100 nM, above 10000 nM, above 75% and below 10 nM.
Consider `Cc1cc(C(C(=O)N2C[C@H](O)C[C@H]2C(=O)NCc2ccc(-c3scnc3C)cc2OCCN(C)C2CCN(C(=O)c3nc(N4CCc5cccc(C(=O)Nc6nc7ccccc7s6)c5C4)ccc3-c3cnn(CC4CCCCC4)c3C)CC2)C(C)C)on1` (stereo partly shown) [I-322], for which the IC50 with MOLT-4 cells lay in the range of 100 to 1000 nM. Besides, the IC50 in the assay on Caki-2 cells was in the range of 100 to 1000 nM. On BCL-XL, the Dmax was 50 to 75% and the DC50 was 100 to 500 nM.
On to `Cc1ncsc1-c1ccc([C@H](C)NC(=O)[C@@H]2C[C@@H](O)CN2C(=O)[C@@H](NC(=O)C2CCN(c3cccc(S(=O)(=O)NC(=O)c4nc(N5CCc6cccc(C(=O)Nc7nc8ccccc8s7)c6C5)ccc4-c4cnn(CC5CCCCC5)c4C)c3)CC2)C(C)(C)C)cc1` [I-380], for which the IC50 in the assay on MOLT-4 cells is below 100 nM. Besides, the IC50 with Caki-2 cells lay in the range of 1000 to 10000 nM. Besides, at BCL-XL, the Dmax was above 75% and the DC50 was below 10 nM.
For `C#Cc1ccc([C@H](CO)NC(=O)[C@@H]2C[C@@H](O)CN2C(=O)[C@@H](NC(=O)CCNCCS(=O)(=O)NC(=O)c2nc(N3CCc4cccc(C(=O)Nc5nc6cccnc6s5)c4C3)ccc2-c2cnn(CC(C)C)c2C)C(C)(C)C)cc1` [I-414], in that order: above 3000 nM, above 10000 nM, 50 to 75% and above 1000 nM.
For `Cc1ncsc1-c1ccc([C@H](C)NC(=O)[C@@H]2C[C@@H](O)CN2C(=O)[C@@H](NC(=O)CCCCCS(=O)(=O)NC(=O)c2nc(N3CCc4cccc(C(=O)Nc5nc6ccccc6s5)c4C3)ccc2-c2cnn(CC(C)(C)C)c2C)C(C)(C)C)cc1` [I-465], in that order: 100 to 1000 nM, above 10000 nM, above 75% and 10 to 100 nM.
For `Cc1ncsc1-c1ccc([C@H](C)NC(=O)[C@@H]2C[C@@H](O)CN2C(=O)[C@@H](NC(=O)C2CCN(CCS(=O)(=O)NC(=O)c3nc(N4CCc5cccc(C(=O)Nc6nc7ccccc7s6)c5C4)ccc3-c3cnn(CC4CCCCC4)c3C)CC2)C(C)(C)C)cc1` [I-373], in that order: 100 to 1000 nM, above 10000 nM, above 75% and 10 to 100 nM.
In the case of `C#Cc1ccc([C@H](CO)NC(=O)[C@@H]2C[C@@H](O)CN2C(=O)[C@@H](NC(=O)CCNCCS(=O)(=O)NC(=O)c2nc(N3CCc4cccc(C(=O)Nc5nc6cccnc6s5)c4C3)ccc2-c2cnn(CC3CCCCC3)c2C)C(C)(C)C)cc1` [I-378], in the assay on MOLT-4 cells, the IC50 lay within 100 to 1000 nM. The IC50 in the assay on Caki-2 cells is above 10000 nM. On BCL-XL, the Dmax was above 75% and the DC50 lay in the range of 10 to 100 nM.
For `Cc1ncsc1-c1ccc([C@H](C)NC(=O)[C@@H]2C[C@@H](O)CN2C(=O)[C@@H](NC(=O)CCCCCS(=O)(=O)NC(=O)c2nc(N3CCc4cccc(C(=O)Nc5nc6cccnc6s5)c4C3)ccc2-c2cnn(CC3CCCCC3)c2C)C(C)(C)C)cc1` [I-363], in that order: below 100 nM, above 10000 nM, above 75% and 10 to 100 nM.
For `Cc1cc(N(C)c2ccc(-c3cnn(CC45CC6CC(CC(C6)C4)C5)c3C)c(C(=O)NS(=O)(=O)CCCCCc3cccc4c3n(C)c(=O)n4C3CCC(=O)NC3=O)n2)nnc1Nc1nc2ccccc2s1` (stereo not shown) [I-423], in that order: below 100 nM, 1000 to 10000 nM, above 75% and below 10 nM.
For `Cc1ncsc1-c1ccc([C@H](C)NC(=O)[C@@H]2C[C@@H](O)CN2C(=O)[C@@H](NC(=O)c2ccc(NC3CCCN(S(=O)(=O)NC(=O)c4nc(N5CCc6cccc(C(=O)Nc7nc8ccccc8s7)c6C5)ccc4-c4cnn(CC5CCCCC5)c4C)C3)cc2)C(C)(C)C)cc1` (stereo partly shown) [I-325], in that order: below 100 nM, 1000 to 10000 nM, 50 to 75% and 100 to 500 nM.
Consider `Cc1ncsc1-c1ccc([C@H](C)NC(=O)[C@@H]2C[C@@H](O)CN2C(=O)[C@@H](NC(=O)C2CCN(c3ccc(S(=O)(=O)NC(=O)c4nc(N5CCc6cccc(C(=O)Nc7nc8ccccc8s7)c6C5)ccc4-c4cnn(CC5CC5)c4C)cc3)CC2)C(C)(C)C)cc1` [I-344], for which the IC50 in the assay on MOLT-4 cells lay within 100 to 1000 nM. In the assay on Caki-2 cells, the IC50 was above 10000 nM. For the same compound, at BCL-XL, the greatest degradation seen (Dmax) is above 75% and the DC50 lay in the range of 10 to 100 nM.
For `C#Cc1ccc(CNC(=O)[C@@H]2C[C@@H](O)CN2C(=O)[C@@H](NC(=O)CCCCCS(=O)(=O)NC(=O)c2nc(N3CCc4cccc(C(=O)Nc5nc6ccccc6s5)c4C3)ccc2-c2cnn(CC(C)(C)C)c2C)C(C)(C)C)cc1` [I-471] the same measures were below 100 nM, above 10000 nM, above 75% and 10 to 100 nM.
For `Cc1ncsc1-c1ccc([C@H](C)NC(=O)[C@@H]2C[C@@H](O)CN2C(=O)[C@@H](NC(=O)C2CCN(c3ccc(S(=O)(=O)NC(=O)c4nc(N5CCc6cccc(C(=O)Nc7nc8ccccc8s7)c6C5)ccc4-c4cnn(CC5CCCCC5)c4C)cc3F)CC2)C(C)(C)C)cc1` [I-328] the same measures were below 100 nM, 1000 to 10000 nM, above 75% and 10 to 100 nM.

As a reminder, the IC50 is the concentration needed to halve the response being measured. What is called Dmax is the largest share of the target that was removed. A low value points to shallow degradation. As usually defined, the DC50 is the concentration giving 50% degradation.
